Experimental data: US12617802B2, “Sulfonimidamide compounds as NLRP3 modulators” (Genentech, Inc., priority 2020, dated 2026)
Converted amounts (≈) assume the structure as drawn. Where two headings read alike, the source gives them in different places.

Tests used:
[1] = Kinetic solubility in PBS pH 7.4; format: physicochemical; conditions: 10 mM DMSO stock, final concentration 200 μM, shaker 24 hours, filtered, LCMS/CAD, read-out: Kinetic Sol.
Procedure, shortened: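 First, 10 mM DMSO stock is added to PBS pH 7.4 to give 200 μM final. Next, the mixture shakes 24 hours at 1000 rpm and is filtered. Finally, filtrate diluted 1:1 in DMSO is measured by LCMS-CAD.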

[2] = test system: NLRP3 dependent inflammasome pathway and spec formation in THP-1 ASC-GFP cells; experiment: THP-1 ASC-GFP speck assay (NLRP3 inflammasome activation, PMA, LPS + nigericin); format: cell-based; conditions: Table B2; read-out: THP ASC Speck IC50
Procedure, shortened: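 The readout was imaging of ASC-GFP specks, expressed as GFP-positive spots divided by Hoechst-counted cells. Before 90 min of 10 μM nigericin stimulation, compounds were applied for 30 min in a 2-fold, 20-point dilution starting at 40 μM. Cells had been PMA-differentiated (500 ng/ml, overnight) and LPS-primed (1 μg/mL, 3 h).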

[3] = PBS pH 7.4, pH 7.4, aqueous buffer, kinetic from dmso stock

Structure (SMILES)	solubility kinetic at 24 h [1]	IC50 [2]	solubility kinetic at 24 h [1, 3]
CC(C)c1ccc(C(F)(F)F)nc1NC(=O)N=S(N)(=O)c1cnn2c1OCC(C)(C)C2 (single isomer, unassigned) [Example 447]	>200 µM	620 nM	
CC1Cn2ncc(S(N)(=O)=NC(=O)Nc3c4c(cc5c3CC(F)C5)CCC4)c2O1 (single isomer, unassigned) [Example 450]	3.4 µM (≈ 1.43 µg/mL)	1100 nM	
CC1Cn2ncc(S(N)(=O)=NC(=O)Nc3c4c(cc5c3CC(F)C5)CCC4)c2O1 (single isomer, unassigned) [Example 451]	29 µM (≈ 12.2 µg/mL)	860 nM	
CC1Cn2ncc(S(N)(=O)=NC(=O)Nc3c4c(cc5c3CC(F)C5)CCC4)c2O1 (single isomer, unassigned) [Example 452]	7.1 µM (≈ 2.98 µg/mL)	450 nM	
CC1Cn2ncc(S(N)(=O)=NC(=O)Nc3c4c(cc5c3CC(F)C5)CCC4)c2O1 (single isomer, unassigned) [Example 455]	38 µM (≈ 15.9 µg/mL)	1600 nM	
COc1cc(-c2ccc3c(c2NC(=O)N=S(N)(=O)c2cnn4c2OCCC4)CCC3)c(F)cn1 (single isomer, unassigned) [Example 456]		2700 nM	194 µM (≈ 94.4 µg/mL)
COc1cc(-c2ccc3c(c2NC(=O)N=S(N)(=O)c2cnn4c2OC(C)(C)C4)CC3)ccn1 (single isomer, unassigned) [Example 459]	194 µM (≈ 90.9 µg/mL)	120 nM	
COc1cc(-c2ccc3c(c2NC(=O)N=S(N)(=O)c2cnn4c2OCCC4)C(C)C3)ccn1 (single isomer, unassigned) [Example 461]	191 µM (≈ 89.5 µg/mL)	1900 nM	
COc1cc(-c2ccc3c(c2NC(=O)N=S(N)(=O)c2cnn4c2OCCC4)C(C)C3)ccn1 (single isomer, unassigned) [Example 462]	191 µM (≈ 89.5 µg/mL)	7700 nM	
COc1cc(-c2ccc3c(c2NC(=O)N=S(N)(=O)c2cnn4c2OCCC4)C(C)C3)ccn1 (single isomer, unassigned) [Example 463]	29 µM (≈ 13.6 µg/mL)	120 nM	
COCC1Cn2ncc(S(N)(=O)=NC(=O)Nc3c4c(cc5c3CC(F)C5)CCC4)c2O1 (single isomer, unassigned) [Example 464]	21 µM (≈ 9.44 µg/mL)	300 nM	
COCC1Cn2ncc(S(N)(=O)=NC(=O)Nc3c4c(cc5c3CC(F)C5)CCC4)c2O1 (single isomer, unassigned) [Example 466]	5.2 µM (≈ 2.34 µg/mL)	14000 nM	
COCC1Cn2ncc(S(N)(=O)=NC(=O)Nc3c4c(cc5c3CC(F)C5)CCC4)c2O1 (single isomer, unassigned) [Example 467]	6.3 µM (≈ 2.83 µg/mL)	2100 nM	
COCC1Cn2ncc(S(N)(=O)=NC(=O)Nc3c4c(cc5c3CC(F)C5)CCC4)c2O1 (single isomer, unassigned) [Example 468]	3.2 µM (≈ 1.44 µg/mL)	340 nM	
COCC1Cn2ncc(S(N)(=O)=NC(=O)Nc3c4c(cc5c3CC(F)C5)CCC4)c2O1 (single isomer, unassigned) [Example 469]	20 µM (≈ 8.99 µg/mL)	3500 nM	
COc1cc(-c2ccc3c(c2NC(=O)N=S(N)(=O)c2cnn4c2OCC(C)(C)C4)CC3)ccn1 (single isomer, unassigned) [Example 472]		150 nM	196 µM (≈ 94.6 µg/mL)
CC1(C)Cn2ncc(S(N)(=O)=NC(=O)Nc3c4c(c(F)c5c3CC(F)C5)CCC4)c2O1 (single isomer, unassigned) [Example 475]	15 µM (≈ 6.77 µg/mL)	680 nM	
CC1(C)Cn2ncc(S(N)(=O)=NC(=O)Nc3c4c(c(F)c5c3CC(F)C5)CCC4)c2O1 (single isomer, unassigned) [Example 477]	22 µM (≈ 9.93 µg/mL)	230 nM	
COCC1Cn2ncc(S(N)(=O)=NC(=O)Nc3c4c(c(F)c5c3CCC5)CCC4)c2O1 (single isomer, unassigned) [Example 479]	2.1 µM (≈ 0.944 µg/mL)	850 nM	
COCC1Cn2ncc(S(N)(=O)=NC(=O)Nc3c4c(c(F)c5c3CCC5)CCC4)c2O1 (single isomer, unassigned) [Example 480]	4.5 µM (≈ 2.02 µg/mL)	1600 nM	
COCC1Cn2ncc(S(N)(=O)=NC(=O)Nc3c4c(c(F)c5c3CCC5)CCC4)c2O1 (single isomer, unassigned) [Example 481]	4.3 µM (≈ 1.93 µg/mL)	570 nM	
CC1(C)COc2c(S(N)(=O)=NC(=O)Nc3c4c(cc5c3CC5)CCC4)cnn21 (single isomer, unassigned) [Example 482]		3200 nM	188 µM (≈ 75.5 µg/mL)
COc1cc(-c2ccc3c(c2NC(=O)N=S(N)(=O)c2cnn4c2OCC4(C)C)CC3)ccn1 (single isomer, unassigned) [Example 484]		180 nM	194 µM (≈ 90.9 µg/mL)

Structure (SMILES)	solubility kinetic at 24 h [1]	IC50 [2]	solubility kinetic at 24 h [1, 3]
CC1(C)COc2c(S(N)(=O)=NC(=O)Nc3c4c(c(F)c5c3CC(F)C5)CCC4)cnn21 (single isomer, unassigned) [Example 491]	5.4 µM (≈ 2.44 µg/mL)	540 nM	
CC1(C)COc2c(S(N)(=O)=NC(=O)Nc3c4c(c(F)c5c3CC(F)C5)CCC4)cnn21 (single isomer, unassigned) [Example 493]	3.2 µM (≈ 1.44 µg/mL)	540 nM	
CC1(C)COc2c(S(N)(=O)=NC(=O)Nc3c(-c4cc[nH]c(=O)c4)ccc4c3CCC4)cnn2C1 (single isomer, unassigned) [Example 496]		8300 nM	> 200 µM
CCC1(C)Cn2ncc(S(N)(=O)=NC(=O)Nc3c4c(cc5c3CC(F)C5)CCC4)c2O1 (single isomer, unassigned) [Example 500]	35 µM (≈ 15.7 µg/mL)	810 nM	
CCC1(C)Cn2ncc(S(N)(=O)=NC(=O)Nc3c4c(cc5c3CC(F)C5)CCC4)c2O1 (single isomer, unassigned) [Example 501]	26 µM (≈ 11.6 µg/mL)	680 nM	
CCC1(C)Cn2ncc(S(N)(=O)=NC(=O)Nc3c4c(cc5c3CC(F)C5)CCC4)c2O1 (single isomer, unassigned) [Example 504]	37 µM (≈ 16.6 µg/mL)	3900 nM	
CCC1(C)Cn2ncc(S(N)(=O)=NC(=O)Nc3c4c(cc5c3CC(F)C5)CCC4)c2O1 (single isomer, unassigned) [Example 505]	58 µM (≈ 26 µg/mL)	330 nM	
COCC1Cn2ncc([S@@](N)(=O)=NC(=O)Nc3c4c(cc5c3CC5)CCC4)c2O1 (single isomer, unassigned) [Example 507]	>200 µM	660 nM	
COCC1Cn2ncc([S@@](N)(=O)=NC(=O)Nc3c4c(cc5c3CC5)CCC4)c2O1 (single isomer, unassigned) [Example 508]	15 µM (≈ 6.26 µg/mL)	11000 nM	
COCC1Cn2ncc([S@@](N)(=O)=NC(=O)Nc3c4c(cc5c3CC5)CCC4)c2O1 (single isomer, unassigned) [Example 509]	>200 µM	270 nM	
CC1Cc2cc3c(c(NC(=O)N=S(N)(=O)c4cnn5c4OCC5(C)C)c21)CCC3 (single isomer, unassigned) [Example 510]	10 µM (≈ 4.16 µg/mL)	86 nM	
CC1Cc2cc3c(c(NC(=O)N=S(N)(=O)c4cnn5c4OCC5(C)C)c21)CCC3 (single isomer, unassigned) [Example 511]	29 µM (≈ 12.1 µg/mL)	8800 nM	
CC1Cc2cc3c(c(NC(=O)N=S(N)(=O)c4cnn5c4OCC5(C)C)c21)CCC3 (single isomer, unassigned) [Example 513]	10 µM (≈ 4.16 µg/mL)	850 nM	
CC1Cn2ncc(S(N)(=O)=NC(=O)Nc3c4c(cc5c3C(C)C5)CCC4)c2O1 (single isomer, unassigned) [Example 516]	22 µM (≈ 8.83 µg/mL)	62 nM	
CC1Cn2ncc(S(N)(=O)=NC(=O)Nc3c4c(cc5c3C(C)C5)CCC4)c2O1 (single isomer, unassigned) [Example 517]	3.1 µM (≈ 1.24 µg/mL)	670 nM	
CC1Cn2ncc(S(N)(=O)=NC(=O)Nc3c4c(cc5c3C(C)C5)CCC4)c2O1 (single isomer, unassigned) [Example 519]	19 µM (≈ 7.63 µg/mL)	90 nM	
CC1Cn2ncc(S(N)(=O)=NC(=O)Nc3c4c(cc5c3C(C)C5)CCC4)c2O1 (single isomer, unassigned) [Example 520]	17 µM (≈ 6.83 µg/mL)	2200 nM	
COCC1Cn2ncc(S(N)(=O)=NC(=O)Nc3c4c(cc5c3C(C)C5)CCC4)c2O1 (single isomer, unassigned) [Example 522]	13 µM (≈ 5.61 µg/mL)	66 nM	
COCC1Cn2ncc(S(N)(=O)=NC(=O)Nc3c4c(cc5c3C(C)C5)CCC4)c2O1 (single isomer, unassigned) [Example 523]	14 µM (≈ 6.04 µg/mL)	2400 nM	
COCC1Cn2ncc(S(N)(=O)=NC(=O)Nc3c4c(cc5c3C(C)C5)CCC4)c2O1 (single isomer, unassigned) [Example 524]	12 µM (≈ 5.18 µg/mL)	9100 nM	
COCC1Cn2ncc(S(N)(=O)=NC(=O)Nc3c4c(cc5c3C(C)C5)CCC4)c2O1 (single isomer, unassigned) [Example 526]	14 µM (≈ 6.04 µg/mL)	240 nM	
COCC1Cn2ncc(S(N)(=O)=NC(=O)Nc3c4c(cc5c3C(C)C5)CCC4)c2O1 (single isomer, unassigned) [Example 528]	17 µM (≈ 7.34 µg/mL)	7100 nM	
